Assays:
[1] = biological target: T1, squalene synthetase (Homo sapiens, UniProt P37268); experiment: Squalene synthetase inhibitory activity (HepG2 cell microsome fraction, [3H]farnesyl pyrophosphate incorporation into squalene); format: biochemical; conditions: HepG2 cell microsome preparation, 5 µM [3H]farnesyl pyrophosphate, 37°C for 20 minutes
T1 construct: 0.01 to 0.1 µg of the HepG2 cell microsome preparation; endogenous in cells; host or cells: HepG2 cells (microsome fraction)
T1 sequence (P37268 1-417): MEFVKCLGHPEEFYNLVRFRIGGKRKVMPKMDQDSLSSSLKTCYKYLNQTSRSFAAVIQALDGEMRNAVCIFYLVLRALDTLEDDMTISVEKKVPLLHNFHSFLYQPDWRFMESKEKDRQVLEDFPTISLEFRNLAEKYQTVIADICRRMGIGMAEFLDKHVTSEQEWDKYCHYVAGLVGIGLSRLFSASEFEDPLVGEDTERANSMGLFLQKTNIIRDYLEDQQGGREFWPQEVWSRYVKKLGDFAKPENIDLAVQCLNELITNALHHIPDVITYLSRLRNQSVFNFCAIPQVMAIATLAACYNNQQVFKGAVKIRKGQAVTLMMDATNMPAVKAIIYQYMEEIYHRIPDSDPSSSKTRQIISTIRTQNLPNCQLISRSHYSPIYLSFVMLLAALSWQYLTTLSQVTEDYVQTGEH
Description: As an enzyme source to measure squalane synthetase activity, we prepared a microsome fraction from a human hepatoma-derived cell line, HepG2 cells, according to the method described by Schechter et al. (Journal of Biological Chemistry, Vol. 267, pp.8628-8635, 1992).
Described specifically, HepG2 cells were first homogenized in the presence of a 10 mM N-2-hydroxyethylpiperazin-N'-2-ethanesulfonate (HEPES) buffer containing 0.3M sucrose, 1 mM dithiothreitol (DTT), 1 mM sodium ethylenediaminetetraacetate (EDT) and various protease inhibitors and adjusted to pH 7.4. The resulting mixture was subjected to centrifugal separation at 2,000 x g for 5 minutes and then 10,000 x g for 15 minutes. The protease inhibitors employed were phenylmethanesulfonyl fluoride (PMSF), leupeptin and aprotinin, which were added to give the final concentration of 1 mM, 10 µM and 5 µg/ml, respectively. The supernatant after centrifugation was centrifuged further at 105,000 xg for 60 minutes. The precipitate thus obtained was suspended in a 20 mM phosphate buffer (pH 7.4) containing 1 mM DTT, 1 mM EDTA and the above-described protease inhibitors and the resulting suspension was washed twice by centrifugation at 105,000 x g for 30 minutes. The precipitate was then suspended in a 20 mM phosphate buffer (pH 7.4) containing 1 mM DTT and 1 mM EDTA and the resulting suspension was similarly centrifuged. […]

[2] = test system: rat liver cells; experiment: Cholesterol synthesis inhibitory activity in rat liver cells ([14C]-acetic acid uptake in cholesterol); format: cell-based; conditions: concentration inhibiting 50% of [14C] acetic acid radioactivity uptake into cholesterol; SD rat liver cells; read-out: Cholesterol synthesis inhibitory action in rat liver cells IC50 (10^-6M)
Description: Liver cells were isolated from rat livers by the in situ collagenase perfusion method. Described specifically, a 6-week-old male SD rat was intraperitoneally administered with a 50 mg/ml pentobarbital sodium solution and thereby anesthetized. After ventrotomy and cannulation from the portal vein, the rat was sacrificed under exsanguination by the excision of the lower large vein. From the cannula, a Hanks solution (pH 7.2) containing 2% albumin, 0.5 mM ethyleneglycolbis(2-aminoethylether) tetraacetate (EGTA) and 10 mM HEPES and being free from a divalent calcium ion and a divalent magnesium ion was subjected to perfusion (flow rate: 0.5 ml/sec) for 5 minutes. The Hanks solution was then changed to another Hanks solution (pH 7.5) having 0.05% collagenase, 4 mM calcium chloride and 10 mM HEPES added thereto and perfusion was continued for further 15 to 20 minutes. After confirmation of the sufficient digestion by collagenase, the liver tissue was placed on a Petri dish, 30 ml of a Dulbeco's modified Eagle's (DEM) medium was added thereto and cells were dispersed by drawing through suction. A cell filter was employed to remove the undigested tissue. The resulting cell suspension was subjected to centrifugal separation at 600 rpm for 1 minute. A 30 ml of DME medium was added to the sediment to disperse the cells, followed by centrifugal separation at 600 rpm for 1 minute. After these washing procedures by centrifugation were repeated three times in total, the liver cell suspension was suspended in a DME medium containing 10% of lipoprotein deficient serum (LPDS). The resulting suspension was seeded on a commercially-available 6-well plate coated with collagen at a cell density of 1 x 10^6 cells per well, followed by incubation overnight in a CO2 incubator (5% CO2 gas, 37°C).
The uptake of [^14C]-acetic acid radioactivity in cholesterol was measured using the liver cells prepared in the above-described manner and the cholesterol synthesis inhibitory activity of the test medicament was evaluated.
Described specifically, the cell culture medium of the liver cells was replaced by a 25 mM HEPES-10% LPDS-DME medium (pH 7.4) containing the test medicament, followed by incubation for one hour in a CO2 incubator. Then, [^14C] sodium acetate was added to give the final concentration of 1 µCi/ml. After incubation for further one hour in the CO2 incubator, the cell culture medium was removed. The cells were washed three times with a phosphate buffered saline (pH 7.2) and then dissolved in 1 ml of a 0.1N aqueous sodium hydroxide solution. […] To the vial, 10 ml of Aquasol 2 was added and ^14C and ^3H radioactivities were counted by a liquid scintillation counter.
The cholesterol synthesis inhibitory activity of the test medicament was calculated in the below-described procedures. […]

| IC50 [1] | IC50 [2] | SMILES |
| --- | --- | --- |
| 0.3 nM | 150 nM | O=C(O)CO[C@@H](C(=O)O)[C@@H](OCCCCCc1ccc2ccccc2c1)C(=O)NCCCCCc1ccc2ccccc2c1 [Example 1, (2R,3R)-2-Carboxymethoxy-3-[N-[5-(2-naphthyl)pentyl]carbamoyl]-3-[5-(2-naphthyl)pentyloxy]propionic acid] |
| – | 390 nM | CC(C)(C)CN1C(=O)[C@@H](CC(=O)NCC(=O)O)O[C@H](c2ccccc2Cl)c2cc(Cl)ccc21 [Compound B, N-[(3R,5S)-7-chloro-5-(2-chlorophenyl)-1-neopentyl-2-oxo-1,2,3,5-tetrahydro-4,1-benzoxazepin-3-acetyl] aminoacetic acid, reference compound] |
| – | 320 nM | C[C@H](NC(=O)C[C@@H](CC(=O)O)C(=O)O)[C@@H](Cc1ccc(Cl)c(Cl)c1)OC(=O)c1ccc2ccccc2c1 [Compound A, (2S)-2-[N-{(1S,2R)-3-(3,4-dichlorophenyl)-1-methyl-2-(2-naphthoyloxy)propyl}carbamoylmethyl] succinic acid, reference compound] |

| SMILES | IC50 [1] | IC50 [2] |
| --- | --- | --- |
| CN(CCCCCc1ccc2ccccc2c1)C(=O)[C@H](OCCCCNc1ccc2c(c1)CCC2)[C@@H](OCC(=O)O)C(=O)O [Example 48, (2R,3R)-2-Carboxymethoxy-3-[4-(5-indanylamino)butoxy]-3-[N-methyl-N-[5-(2-naphthyl)pentyl]carbamoyl]propionic acid] | – | 19 nM |

From patent publication EP0949238A1, “SUBSTITUTED PROPIONYL DERIVATIVES” (DAIICHI PHARMACEUTICAL CO., LTD., priority 1996, dated 1998)
